ChEMBL document CHEMBL5634166, “Structural modification of tanshinone IIA and their α-glucosidase inhibitory activity” (Bioorg Med Chem Lett, 2024)
The source made the active and inactive calls. The calls are words filed in the database; no cut-off is given here.

Assays:
Alpha-glucosidase [1] = biological target: T1, Alpha-glucosidase (Saccharomyces cerevisiae S288c, UniProt P53341+P38158+P07265); experiment: Inhibition of yeast alpha-glucosidase; type: protein assay
[2] = biological target: T2, Alpha-glucosidase (Saccharomyces cerevisiae S288c) (UniProt P53341+P38158+P07265); experiment: Inhibition of yeast alpha glucosidase at 50 uM relative to control; type: protein assay
[3] = biological target: T2, Alpha-glucosidase (Saccharomyces cerevisiae S288c); experiment: Potency index, ratio of acarbose IC50 to test compound IC50 for inhibition of yeast alpha glucosidase; type: protein assay
Alpha-glucosidase [4] = biological target: T1, Alpha-glucosidase; experiment: Binding affinity to yeast alpha glucosidase assessed as inhibition constant; type: protein assay
[5] = biological target: T2, Alpha-glucosidase (Saccharomyces cerevisiae S288c); experiment: Competitive inhibition of yeast alpha-glucosidase assessed as […] with constant Vmax by Lineweaver-Burk plot analysis; type: protein assay
Alpha-glucosidase [6] = biological target: T1, Alpha-glucosidase; experiment: Inhibition of Saccharomyces cerevisiae alpha-glucosidase using p-nitrophenyl-alpha-D-glucopyranoside as substrate preincubated for 5 mins followed by substrate addition and measured after 30 mins by spectrophotometric analysis; type: protein assay
Alpha-glucosidase [7] = biological target: T1, Alpha-glucosidase; experiment: Inhibition of alpha-glucosidase (unknown origin); type: protein assay, Homo sapiens

| SMILES | IC50 (Alpha-glucosidase [1]) [µM] | inhibition [2] [%] | also measured |
| --- | --- | --- | --- |
| Cc1coc2c1C(=O)C(=O)c1c-2ccc2c1CCCC2(C)C [TANSHINONE IIA] | 11.39 | > 80 | – |
| Cc1coc2c3ccc4c(c3c3oc(-c5ccccc5)nc3c12)CCCC4(C)C | 3.51 | > 80 | – |
| Cc1coc2c3ccc4c(c3c3oc(-c5ccccc5F)nc3c12)CCCC4(C)C | – | < 80 | – |
| Cc1coc2c3ccc4c(c3c3oc(CCCc5ccccc5)nc3c12)CCCC4(C)C | – | < 80 | – |
| Cc1coc2c3ccc4c(c3c3oc(CCc5ccccc5)nc3c12)CCCC4(C)C | 9.46 | > 80 | – |
| Cc1coc2c3ccc4c(c3c3oc(-c5ccc(Cl)c(Cl)c5)nc3c12)CCCC4(C)C | 6.67 | > 80 | – |
| Cc1coc2c3ccc4c(c3c3oc(Cc5ccc(O)cc5)nc3c12)CCCC4(C)C | 3.21 | > 80 | – |
| Cc1coc2c3ccc4c(c3c3oc(-c5ccc(Cl)cc5)nc3c12)CCCC4(C)C | 3.45 | > 80 | Ratio IC50 [3]: 30 |
| Cc1coc2c3ccc4c(c3c3oc(Cc5ccc(O)c(O)c5)nc3c12)CCCC4(C)C | 0.73 | > 80 | Ki (Alpha-glucosidase [4]): 12.1 µM; inhibition [5]: Active |
| Cc1coc2c3ccc4c(c3c3oc(Cc5ccccc5)nc3c12)CCCC4(C)C | 4.14 | > 80 | – |
| COc1ccc(-c2nc3c(o2)c2c4c(ccc2c2occ(C)c32)C(C)(C)CCC4)c(OC)c1 | – | < 80 | – |
| C=C(C)[C@@H]1CC[C@]2(C(=O)NCC(=O)O)CC[C@]3(C)[C@H](CC[C@@H]4[C@@]5(C)Cc6c([nH]c7ccccc67)C(C)(C)[C@@H]5CC[C@]43C)[C@@H]12 | – | – | IC50 (Alpha-glucosidase [6]): 0.04 µM |
| Cc1coc2c3ccc4c(c3c3oc(-c5ccccc5C(F)(F)F)nc3c12)CCCC4(C)C | – | < 80 | – |
| COc1cc(-c2nc3c(o2)c2c4c(ccc2c2occ(C)c32)C(C)(C)CCC4)ccc1O | – | < 80 | – |
| Cc1coc2c3ccc4c(c3c3oc(-c5ccc(C(F)(F)F)cc5)nc3c12)CCCC4(C)C | 2.33 | > 80 | – |
| Oc1ccc(/C=N/c2nnc(-c3ccc(O)cc3)o2)cc1 | – | – | IC50 (Alpha-glucosidase [7]): 0.3 µM |
| Cc1coc2c3ccc4c(c3c3oc(-c5ccc(Br)cc5)nc3c12)CCCC4(C)C | – | < 80 | – |
